In patent US9073821B2, “Hydroxamic acid derivative” (priority 2010, dated 2015):

target: Pseudomonas aeruginosa LpxC enzyme (Pseudomonas aeruginosa (strain ATCC 15692 / DSM 22644 / CIP 104116 / JCM 14847 / LMG 12228 / 1C / PRS 101 / PAO1), UniProt P47205); assay: biochemical; type: biochemical; settings: inhibitory activity on Pseudomonas aeruginosa LpxC enzyme, class symbols A/B/C; read-out: Enzyme inhibitory activity

| SMILES | IC50 |
| --- | --- |
| CNC(=O)C(C(=O)NO)N(C)C(=O)c1ccc(-c2ccc(NCCCNc3ccccc3)cc2)cc1 (stereo not drawn) [Compound 100, N-hydroxy-N′-methyl-2-{methyl[(4′-{[3-(phenylamino)propyl]amino}biphenyl-4-yl)carbonyl]amino}propanediamide] | < 10 nM |
| CNC(=O)C(C(=O)NO)N(C)C(=O)c1ccc(-c2ccc(NC)cc2)c(NC)c1 (stereo not drawn) [Compound 101, 2-[{[2,4′-bis(methylamino)biphenyl-4-yl]carbonyl}(methyl)amino]-N-hydroxy-N′-methylpropanediamide] | > 100 nM |
| CNC(=O)C(C(=O)NO)N(C)C(=O)c1ccc(-c2ccc(OCC3(CN4CCOCC4)CC3)cc2)cc1 (stereo not drawn) [Compound 102, N-hydroxy-N′-methyl-2-{methyl[(4′-{[1-(morpholin-4-ylmethyl)cyclopropyl]methoxy}biphenyl-4-yl)carbonyl]amino}propanediamide] | 10 to 100 nM |
| CNC(=O)C(C(=O)NO)N(C)C(=O)c1ccc(-c2ccc(NCC3CC3CNc3ccccc3)cc2)cc1 (stereo not drawn) [Compound 103, N-hydroxy-N′-methyl-2-[methyl({4′-[({2-[(phenylamino)methyl]cyclopropyl}methyl)amino]biphenyl-4-yl}carbonyl)amino]propanediamide] | < 10 nM |
| CNC(=O)C(C(=O)NO)N(C)C(=O)c1ccc(-c2ccoc2)cc1 (stereo not drawn) [Compound 105, 2-{[4-(furan-3-yl)benzoyl](methyl)amino}-N-hydroxy-N′-methylpropanediamide] | > 100 nM |
| CNC(=O)C(C(=O)NO)N(C)C(=O)c1ccc(-c2ccc(OCCCN(C)Cc3ccccc3)cc2NC)cc1 (stereo not drawn) [Compound 106, 2-[{[4′-{3-[benzyl(methyl)amino]propoxy}-2′-(methylamino)biphenyl-4-yl]carbonyl}(methyl)amino]-N-hydroxy-N′-methylpropanediamide] | 10 to 100 nM |
| CNC(=O)C(C(=O)NO)N(C)C(=O)c1ccc(-c2ncccc2F)cc1 (stereo not drawn) [Compound 107, 2-{[4-(3-fluoropyridin-2-yl)benzoyl](methyl)amino}-N-hydroxy-N′-methylpropanediamide] | > 100 nM |
| CNC(=O)C(C(=O)NO)N(C)C(=O)c1ccc(-c2ccc(F)cn2)cc1 (stereo not drawn) [Compound 108, 2-{[4-(5-fluoropyridin-2-yl)benzoyl](methyl)amino}-N-hydroxy-N′-methylpropanediamide] | > 100 nM |
| O=C(NC(C(=O)NO)C(=O)NO)c1ccc(-c2ccccc2)cc1 [Compound 109, 2-[(biphenyl-4-ylcarbonyl)amino]-N,N′-dihydroxypropanediamide] | 10 to 100 nM |
| CNC(=O)C(NC(=O)c1ccc(-c2ccccc2)cc1)C(=O)NO (stereo not drawn) [Compound 110, 2-[(biphenyl-4-ylcarbonyl)amino]-N-hydroxy-N′-methylpropanediamide] | 10 to 100 nM |
| NC(=O)C(NC(=O)c1ccc(-c2ccccc2)cc1)C(=O)NO (stereo not drawn) [Compound 111, 2-[(biphenyl-4-ylcarbonyl)amino]-N-hydroxypropanediamide] | 10 to 100 nM |
| CNC(=O)C(NC(=O)c1ccc(-c2ccc(OCCCN3CCCOCC3)cc2)cc1)C(=O)NO (stereo not drawn) [Compound 112, N-hydroxy-N′-methyl-2-[({4′-[3-(1,4-oxazepan-4-yl)propoxy]biphenyl-4-yl}carbonyl)amino]propanediamide] | < 10 nM |
| CNC(=O)C(NC(=O)c1ccc(-c2ccc(OCCO)cc2)cc1)C(=O)NO (stereo not drawn) [Compound 113, N-hydroxy-2-({[4′-(2-hydroxyethoxy)biphenyl-4-yl]carbonyl}amino)-N′-methylpropanediamide] | < 10 nM |
| CNC(=O)C(NC(=O)c1ccc(-c2ccc(NCCO)cc2)cc1)C(=O)NO (stereo not drawn) [Compound 114, N-hydroxy-2-[({4′-[(2-hydroxyethyl)amino]biphenyl-4-yl}carbonyl)amino]-N′-methylpropanediamide] | 10 to 100 nM |
| CNC(=O)C(NC(=O)c1ccc(C#Cc2ccc(NCCO)cc2)cc1)C(=O)NO (stereo not drawn) [Compound 115, N-hydroxy-2-{[4-({4-[(2-hydroxyethyl)amino]phenyl}ethynyl)benzoyl]amino}-N′-methylpropanediamide] | < 10 nM |
